Results on 15 molecules are retold here after paper PMC6522510 (Nature Communications, 2019).

Test systems include ML-2; U937; CMS; MV4-11; CMK; CHRF288-11; MOLM-13; M07e.
Design in all cases: species or system AML cell lines (8); Primary HTS, single concentration about 10 uM, Cell Titer Glo viability; log10 luminescence, per cent inhibition relative to cycloheximide control
Holding throughout (conditions): 72 h, relative to cycloheximide control, log10 luminescence, inhibitor
(In general: Cellular ATP, detected with luciferase, serves as a proxy for viable cell number.)

Counter-ions that a name gives are not always drawn. Like-named read-outs stand apart in the source and are kept apart here.

Take `CC(C)(C)C(=O)Oc1ccc(S(=O)(=O)Nc2ccccc2C(=O)NCC(=O)O)cc1` [SJ000556638-2, SIVELESTAT SODIUM SALT]: the ML-2 %inh with ML-2 (ML-2 %inh, 10 µM) is given as 1.02%. Further, in the experiment on U937 (U937 %inh, 10 µM), the U937 %inh is -0.4301%. The CMS %inh with CMS (CMS %inh, 10 µM) is reported as 2.093%. Also, the MV4-11 %inh with MV4-11 (MV4-11 %inh, 10 µM) was determined as 2.862%. Also, the CMK %inh in the experiment on CMK (CMK %inh, 10 µM) is on record as -3.181%. Further, in the experiment with CHRF288-11 (CHRF288-11 %inh, 10 µM), the CHRF288-11 %inh was 2.891%. For the same molecule, in the experiment on MOLM-13 (MOLM-13 %inh, 10 µM), the MOLM-13 %inh is -1.5%. The M07e %inh in the experiment on M07e (M07e %inh, 10 µM) is listed as 0.385%.

Take `O=C(O)P(=O)(O)O` [SJ000285291-3, FOSCARNET SODIUM]: in the experiment on ML-2, the ML-2 %inh was -0.9621%. The U937 %inh in the experiment on U937 is listed as -2.189%. Besides, in the experiment with CMS, the CMS %inh came to 0.8709%. In the experiment with MV4-11, the MV4-11 %inh is given as 0.7745%. Moreover, in the experiment with CMK, the CMK %inh turned out to be 3.052%. The CHRF288-11 %inh in the experiment on CHRF288-11 is given as -2.096%. The MOLM-13 %inh in the experiment with MOLM-13 is 3.283%. In addition, the M07e %inh with M07e is recorded as -4.14%.

Regarding `COc1ccc(-c2nn3ncccc3c2-c2ccnc(Nc3ccc(Cl)c(C(F)(F)F)c3)n2)cc1` [SJ000573073-1, U17838/183/2], in the experiment with ML-2, the ML-2 %inh is -1.529%. In addition, the U937 %inh in the experiment with U937 is recorded as 0.7639%. For the same molecule, the CMS %inh with CMS turned out to be 0.1387%. Also, in the experiment with MV4-11, the MV4-11 %inh is recorded as 3.163%. Moreover, in the experiment with CMK, the CMK %inh amounted to 3.073%. Besides, in the experiment on CHRF288-11, the CHRF288-11 %inh is 1.294%. Also, in the experiment on MOLM-13, the MOLM-13 %inh is recorded as -0.8658%. Besides, the M07e %inh with M07e was -2.862%.

On to `O=C(Nc1n[nH]c2cc(-c3ccccc3)ccc12)C1CC1` [SJ000573067-1, VB100064-117A1], for which the ML-2 %inh in the experiment on ML-2 was found to be 19.77%. In addition, the U937 %inh in the experiment with U937 is given as 46.5%. Moreover, the CMS %inh with CMS was found to be 3.176%. In addition, the MV4-11 %inh in the experiment on MV4-11 is listed as 0.9726%. Moreover, the CMK %inh with CMK was 85.27%. Further, the CHRF288-11 %inh in the experiment with CHRF288-11 was determined as 40.96%. Moreover, the MOLM-13 %inh in the experiment on MOLM-13 is reported as 40.31%. For the same molecule, in the experiment with M07e, the M07e %inh was determined as 17.84%.

`CCOc1cc(CC(=O)N[C@@H](CC(C)C)c2ccccc2N2CCCCC2)ccc1C(=O)O` [SJ000287528-3, REPAGLINIDE]: the ML-2 %inh with ML-2 (ML-2 %inh, 10 µM) was -0.6814%. The U937 %inh with U937 (U937 %inh, 10 µM) is 0.8964%. Besides, in the experiment on CMS (CMS %inh, 10 µM), the CMS %inh was -3.811%. Besides, the MV4-11 %inh in the experiment with MV4-11 (MV4-11 %inh, 10 µM) is listed as -2.004%. Moreover, in the experiment with CMK (CMK %inh, 10 µM), the CMK %inh was -1.863%. Besides, the CHRF288-11 %inh in the experiment with CHRF288-11 (CHRF288-11 %inh, 10 µM) came to 0.4521%. Also, in the experiment with MOLM-13 (MOLM-13 %inh, 10 µM), the MOLM-13 %inh came out at 1.863%. Besides, in the experiment with M07e (M07e %inh, 10 µM), the M07e %inh amounted to 1.002%.

`O=C(Nc1n[nH]c2cc(-c3ccc(F)cc3)ccc12)C1CC1` [SJ000573147-1, VB100064-137A1]: the ML-2 %inh in the experiment with ML-2 stood at 9.118%. In the experiment on U937, the U937 %inh is reported as 28.55%. Besides, the CMS %inh in the experiment with CMS is listed as -1.795%. Further, the MV4-11 %inh in the experiment with MV4-11 was -2.4%. For the same molecule, in the experiment with CMK, the CMK %inh is 55.62%. Further, the CHRF288-11 %inh in the experiment with CHRF288-11 is 23.72%. Further, the MOLM-13 %inh in the experiment on MOLM-13 stood at 13.56%. For the same molecule, the M07e %inh in the experiment on M07e came out at 6.083%.

With `FC(F)(F)c1cccc(-c2nn3ncccc3c2-c2ccnc(Nc3ccc4c(c3)OCCO4)n2)c1` [SJ000573080-1, U18020/138/1], in the experiment with ML-2, the ML-2 %inh is given as 2.472%. In the experiment with U937, the U937 %inh was determined as 3.041%. The CMS %inh in the experiment with CMS is listed as 2.426%. The MV4-11 %inh with MV4-11 worked out at 2.308%. In addition, the CMK %inh in the experiment with CMK amounted to 6.614%. In addition, the CHRF288-11 %inh in the experiment on CHRF288-11 is 0.7655%. Besides, the MOLM-13 %inh with MOLM-13 was found to be 3.832%. Further, in the experiment with M07e, the M07e %inh was -0.1766%.

Regarding `CN(C)CCCNc1nccc(-c2c(-c3ccc(F)cc3)nn3cc(C(F)(F)F)ccc23)n1` [SJ000573200-1, U14929/105/1], the ML-2 %inh in the experiment with ML-2 was found to be 2.988%. Besides, the U937 %inh in the experiment on U937 is recorded as 2.291%. Further, the CMS %inh in the experiment on CMS is reported as -0.7094%. The MV4-11 %inh in the experiment on MV4-11 turned out to be 2.615%. In addition, the CMK %inh in the experiment with CMK amounted to 6.318%. The CHRF288-11 %inh in the experiment with CHRF288-11 is reported as 4.716%. Also, in the experiment on MOLM-13, the MOLM-13 %inh came out at 3.151%. For the same molecule, the M07e %inh with M07e is 5.185%.

As for `Cn1cc(C2=C(c3c4n(c5ccccc35)CCNC4)C(=O)NC2=O)c2ccccc21` [SJ000581080-1], the ML-2 %inh in the experiment with ML-2 was determined as 12.57%. The U937 %inh in the experiment on U937 was determined as 18.44%. Further, the CMS %inh in the experiment with CMS turned out to be 16.83%. The MV4-11 %inh in the experiment on MV4-11 turned out to be 15.28%. Also, the CMK %inh in the experiment on CMK worked out at 60.56%. Moreover, the CHRF288-11 %inh in the experiment with CHRF288-11 came out at 19.49%. Further, the MOLM-13 %inh with MOLM-13 is 62.95%. In addition, in the experiment on M07e, the M07e %inh is 25.69%.

In the case of `COc1ccc2ncn(-c3cc(O[C@H](C)c4ccccc4C(F)(F)F)c(C(N)=O)s3)c2c1` [SJ000573322-1, U20814/199/10], the ML-2 %inh with ML-2 was determined as 37.32%. Moreover, in the experiment with U937, the U937 %inh is reported as 82.26%. Besides, in the experiment on CMS, the CMS %inh is 76.93%. Also, in the experiment with MV4-11, the MV4-11 %inh stood at 71.74%. Moreover, the CMK %inh in the experiment on CMK was found to be 113.1%. Further, the CHRF288-11 %inh in the experiment with CHRF288-11 was 71.55%. For the same molecule, the MOLM-13 %inh with MOLM-13 was found to be 82.54%. Further, in the experiment with M07e, the M07e %inh is given as 100.1%.

With `CCOc1ccc2c(-c3ccnc(Nc4cc(OC)cc(C(F)(F)F)c4)n3)cnn2n1` [SJ000573233-1, U17838/82/6], in the experiment on ML-2, the ML-2 %inh stood at 0.4459%. In the experiment with U937, the U937 %inh turned out to be 1.137%. Further, the CMS %inh in the experiment on CMS is given as 0.7407%. The MV4-11 %inh with MV4-11 is listed as 0.1159%. In the experiment on CMK, the CMK %inh is given as -2.522%. Also, the CHRF288-11 %inh with CHRF288-11 worked out at 13.25%. For the same molecule, the MOLM-13 %inh in the experiment on MOLM-13 was -2.068%. Moreover, in the experiment with M07e, the M07e %inh came out at 5.562%.

As for `Cc1nc(-c2ccccc2)n2nc(NCCCN3CCOCC3)ncc12` [SJ000573136-1, U19891/100/1], in the experiment with ML-2, the ML-2 %inh was determined as 5.663%. The U937 %inh in the experiment on U937 is reported as 1.344%. Further, the CMS %inh with CMS was 0.3241%. Moreover, the MV4-11 %inh with MV4-11 was 3.076%. Also, the CMK %inh in the experiment with CMK worked out at 23.01%. The CHRF288-11 %inh in the experiment with CHRF288-11 was determined as 6.275%. For the same molecule, in the experiment with MOLM-13, the MOLM-13 %inh turned out to be 7.46%. For the same molecule, the M07e %inh in the experiment on M07e is recorded as -0.8598%.

Turning to `O=C(O)C(Cc1ccc2c(c1)oc1ccccc12)NCP(=O)(O)O` (stereo not drawn) [SJ000772433-1, CGS 35066], the ML-2 %inh with ML-2 turned out to be 5.201%. Further, the U937 %inh in the experiment with U937 came to 0.4141%. Moreover, in the experiment with CMS, the CMS %inh is given as -0.6949%. Further, the MV4-11 %inh in the experiment with MV4-11 is listed as 3.69%. Further, the CMK %inh in the experiment on CMK was -1.634%. Also, the CHRF288-11 %inh in the experiment on CHRF288-11 came to 0.3778%. Moreover, in the experiment with MOLM-13, the MOLM-13 %inh came out at 2.239%. In the experiment with M07e, the M07e %inh was determined as 2.079%.

Regarding `Nc1c(C(=O)c2ccc(C#CCN3CCOCC3)cc2)cnn1-c1ccc(F)cc1` [SJ000581175-1], the ML-2 %inh in the experiment with ML-2 is given as -0.5007%. The U937 %inh with U937 is recorded as 8.015%. Moreover, the CMS %inh in the experiment on CMS worked out at 1.749%. Further, the MV4-11 %inh with MV4-11 turned out to be 6.7%. The CMK %inh in the experiment on CMK is recorded as 5.964%. For the same molecule, in the experiment with CHRF288-11, the CHRF288-11 %inh is listed as -0.8034%. For the same molecule, in the experiment with MOLM-13, the MOLM-13 %inh was 6.812%. Besides, the M07e %inh in the experiment on M07e was -0.05766%.

With `COc1cccc(-n2ncc3c(N/N=C/c4ccc(C)cc4)ncnc32)c1` [SJ000573035-1, U19125/70/4], the ML-2 %inh in the experiment with ML-2 was -2.47%. Also, the U937 %inh in the experiment on U937 is reported as 2.182%. Also, the CMS %inh with CMS turned out to be 5.04%. Besides, the MV4-11 %inh in the experiment with MV4-11 is on record as -1.749%. In the experiment with CMK, the CMK %inh is on record as -4.291%. Also, the CHRF288-11 %inh in the experiment with CHRF288-11 is given as -5.466%. Moreover, the MOLM-13 %inh with MOLM-13 was -2.64%. Further, the M07e %inh in the experiment with M07e was -2.359%.
